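Where inhibition never reached the appropriate level, the endpoint shown equals the highest concentration tested. Otherwise, values were interpolated linearly from a five-concentration, 48-hour dose response in 96-well plates. Abbreviation: GI50, concentration required for 50% inhibition of growth.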 Active and inactive are the calls of the source. Cut-off read from the data, not from the text of the source: active = GI50 up to about 1.1 µM and inactive = higher.
Assays:
Test in all cases: inhibition of tumour cell growth, NCI panel, 48 h
[1] = system: KM12
[2] = system: TK-10
[3] = system: SK-OV-3
[4] = system: M14
[5] = system: LOX IMVI
[6] = system: SNB-19
[7] = system: SN12C
[8] = system: COLO 205
[9] = system: SNB-75
[10] = system: EKVX
[11] = system: NCI-H522
[12] = system: NCI-H23
[13] = system: ACHN
[14] = system: SK-MEL-5
[15] = system: SF-268
[16] = system: HT-29
[17] = system: NCI-H226

Measured: GI50

NC1C2(CCCCCC2)NC(=O)C12CCCCCC2 (stereo unspecified)
inactive: [1] > 100 µM | [2] > 100 µM | [3] > 100 µM | [4] > 100 µM | [5] > 100 µM | [6] > 100 µM | [7] > 100 µM | [8] > 100 µM | [9] > 100 µM | [10] > 100 µM | [11] > 100 µM | [12] > 100 µM | [13] > 100 µM | [14] > 100 µM | [15] > 100 µM | [16] > 100 µM

O=C(Cc1ccccc1)NN1C(=O)C(Cl)C1c1ccccc1O (stereo unspecified)
inactive: [2] 45.3 µM | [3] 20.3 µM | [4] 14.1 µM | [5] 12.1 µM | [6] 16.9 µM | [17] 10 µM | [7] 27.9 µM | [8] 16.4 µM | [9] 34.8 µM | [10] 4.07 µM | [11] 3.27 µM | [12] 20.4 µM | [13] 6.98 µM | [15] 13.5 µM | [16] 8.05 µM

Oc1c(Cl)c2nccnc2c2ccccc12
inactive: [1] > 100 µM | [2] > 100 µM | [3] > 100 µM | [4] > 100 µM | [17] > 100 µM | [7] > 100 µM | [8] > 100 µM | [9] > 100 µM | [10] > 100 µM | [11] > 100 µM | [12] > 100 µM | [13] > 100 µM | [14] > 100 µM | [15] > 100 µM | [16] > 100 µM

O=C(c1ccccc1)C1OC12C(=O)Nc1c(Cl)cc(Cl)cc12 (stereo unspecified)
inactive: [1] > 100 µM | [2] > 94.4 µM | [3] > 53 µM | [4] 31.5 µM | [5] 23.4 µM | [6] 66.2 µM | [17] 5.6 µM | [7] 27.2 µM | [8] 19.7 µM | [9] 7.87 µM | [10] 57.8 µM | [11] 17.5 µM | [12] 58.2 µM | [13] 23.8 µM | [14] > 74.3 µM | [15] 35.2 µM | [16] 33.6 µM

Cc1[nH]c2ccccc2c1C(=O)CC1(O)C(=O)Nc2c(Cl)cc(Cl)cc21 (stereo unspecified)
inactive: [1] 61.9 µM | [2] 39.4 µM | [3] 72.3 µM | [4] 21.5 µM | [5] 27 µM | [6] 41.3 µM | [17] 18.8 µM | [7] 24.8 µM | [8] 30.1 µM | [9] 27.9 µM | [11] 16.9 µM | [12] 19.5 µM | [13] 21.9 µM | [14] 17.2 µM | [15] 25.3 µM | [16] 54.3 µM

COc1ccc2nc3cc(Cl)ccc3c(SCC(=O)Nc3ccccc3-c3ccccc3NC(=O)CSc3c4ccc(Cl)cc4nc4ccc(OC)cc34)c2c1
inactive: [1] > 100 µM | [2] > 100 µM | [3] > 100 µM | [4] > 100 µM | [5] > 100 µM | [6] > 100 µM | [17] > 100 µM | [7] > 100 µM | [8] > 100 µM | [9] > 100 µM | [10] > 100 µM | [11] > 100 µM | [12] > 100 µM | [13] > 100 µM | [14] > 100 µM | [15] > 100 µM | [16] > 100 µM

O=C1NC(=O)c2c1n(Cc1ccccc1)c(=O)n2Cc1ccccc1
inactive: [1] > 100 µM | [2] 96.6 µM | [3] > 100 µM | [4] > 100 µM | [5] > 100 µM | [6] > 100 µM | [17] > 100 µM | [7] > 100 µM | [8] > 100 µM | [9] > 100 µM | [10] > 100 µM | [11] > 100 µM | [12] > 100 µM | [13] > 100 µM | [14] > 100 µM | [15] > 100 µM | [16] > 100 µM

O=C1NC(=S)NC(=O)C1=Cc1ccc[nH]1
inactive: [1] 3.48 µM | [2] 17.4 µM | [3] > 100 µM | [4] 21 µM | [5] 9.06 µM | [6] 25.8 µM | [17] 14.5 µM | [7] 10.6 µM | [8] 12.2 µM | [9] 18 µM | [10] 24 µM | [11] 1.87 µM | [12] 12.4 µM | [13] 15 µM | [14] 26.5 µM | [15] 22.6 µM | [16] 4.38 µM

C[N+]1=c2c3cccc4cccc(c(=O)n2CCC1)c43
inactive: [1] 31 µM | [2] 14.6 µM | [3] 27.5 µM | [4] 17.2 µM | [5] 15.3 µM | [17] 18.4 µM | [7] 21 µM | [8] 16.2 µM | [9] 25.1 µM | [10] 24.9 µM | [11] 15.8 µM | [12] 19 µM | [13] 22.4 µM | [14] 17.9 µM | [15] 23.5 µM | [16] 20.1 µM

Cc1ccc(S(=O)(=O)Nc2cccc(C)c2C)cc1
inactive: [1] 52.7 µM | [2] 65.3 µM | [3] 56.9 µM | [4] 37.9 µM | [5] 62.5 µM | [6] > 100 µM | [17] 56.4 µM | [7] 55.1 µM | [8] 59.7 µM | [9] 22.5 µM | [10] 73.5 µM | [12] 28.1 µM | [14] 31.2 µM | [15] 86.7 µM | [16] 74.1 µM

[O-][Cl+3]([O-])([O-])O.c1ccc(/N=c2\snc(-c3ccccc3)s2)cc1
inactive: [1] > 100 µM | [2] > 100 µM | [3] > 100 µM | [4] > 100 µM | [6] > 100 µM | [17] > 100 µM | [7] > 100 µM | [8] > 100 µM | [9] > 100 µM | [11] > 100 µM | [13] > 100 µM | [14] > 100 µM | [15] > 100 µM

C=C(C[N+](C)(C)C)N/N=C/c1oc(-c2ccc(OC)c(OC)c2)c(-c2ccc(OC)c(OC)c2)c1[N+](=O)[O-]
inactive: [1] 17.1 µM | [2] 22.4 µM | [3] 30.3 µM | [4] 22.1 µM | [5] 15 µM | [6] 34.4 µM | [17] 27.3 µM | [7] 16.7 µM | [8] 16.4 µM | [9] 19.4 µM | [10] > 100 µM | [11] 23.2 µM | [12] 21 µM | [13] 15.4 µM | [14] 16.4 µM | [15] 17.9 µM | [16] 16.9 µM

CC(C)=CC(=O)CC(=O)C(=O)Nc1ccc(C)c(C)c1
inactive: [1] > 100 µM | [2] > 100 µM | [3] > 100 µM | [4] > 100 µM | [5] > 100 µM | [6] > 100 µM | [17] > 100 µM | [7] > 100 µM | [9] > 100 µM | [10] > 100 µM | [11] > 100 µM | [12] > 100 µM | [13] > 100 µM | [15] > 100 µM | [16] > 100 µM

COC(=O)c1c(O)ccc(O)c1C(C(C)=O)C(C)=O
inactive: [1] > 100 µM | [2] > 100 µM | [3] > 100 µM | [4] > 100 µM | [5] > 100 µM | [6] > 100 µM | [7] > 100 µM | [8] > 100 µM | [9] > 100 µM | [10] > 100 µM | [11] 45.9 µM | [12] > 100 µM | [14] > 100 µM | [15] > 100 µM | [16] > 100 µM

Cc1noc2c1C(=O)CCC2
inactive: [2] > 100 µM | [3] > 100 µM | [4] > 100 µM | [5] > 100 µM | [17] > 100 µM | [7] > 100 µM | [8] > 100 µM | [9] > 100 µM | [10] > 100 µM | [11] > 100 µM | [13] > 100 µM | [15] > 100 µM | [16] > 100 µM

CC1=C(C(=O)Nc2ccccc2C)C(c2ccccc2C)C(C(=O)Nc2ccccc2C)=C(C)N1
inactive: [1] 18.4 µM | [2] 28.8 µM | [5] 15 µM | [6] 22.6 µM | [17] 21.5 µM | [7] 18 µM | [8] 24.3 µM | [9] 22.4 µM | [10] 20.7 µM | [11] 14.8 µM | [12] 21.5 µM | [13] 15.7 µM | [15] 20.4 µM | [16] 20.3 µM

CNC1=Nc2ccc(Cl)cc2C(c2ccccc2)=NN1C
inactive: [1] > 100 µM | [2] 84.3 µM | [4] > 100 µM | [5] 60.4 µM | [6] > 100 µM | [17] > 100 µM | [7] > 100 µM | [8] > 100 µM | [9] 23.4 µM | [10] > 100 µM | [11] > 100 µM | [12] > 100 µM | [13] > 100 µM | [14] 49.1 µM | [15] 57.9 µM | [16] 56.5 µM

C[N+]12c3ccccc3O[B-]1(c1ccccc1)Oc1ccccc12 (stereo unspecified)
inactive: [1] 25.2 µM | [2] 23.5 µM | [3] 33.7 µM | [4] 15 µM | [5] 16.1 µM | [6] 66.1 µM | [17] 32.8 µM | [7] 31.9 µM | [8] 63.8 µM | [9] 19.9 µM | [10] 84.5 µM | [11] 15.3 µM | [12] 52.8 µM | [13] 14.8 µM | [14] 36.2 µM | [15] 20.3 µM | [16] 73.5 µM

Source: ChEMBL document CHEMBL1201862, “PubChem BioAssay data set” (2004)
